In PMC3798018 (Nature chemical biology, 2009):
pIC50: −log10 of the molar value.

Experiments:
[1] = tested on: non-HKD-containing bacterial (Streptomyces chromofuscus) PLD; settings: read-out: IC50 S. chromofuscus PLD; in vitro; cited from earlier work
human PLD1b = settings: read-out: IC50 human PLD1b; in vitro; cited from earlier work
[2] = tested on: MDA-231 human breast cancer cell line; experiment: Transwell matrigel invasion assay, MDA-231; format: cell-based; settings: MDA-231, 20 µM, 48 h
[3] = tested on: 4T1 mouse metastatic breast cancer line; experiment: Transwell matrigel invasion assay, 4T1; format: cell-based; settings: 48 h
PMT cells = experiment: Transwell matrigel invasion assay, PMT; format: cell-based, mouse; settings: 20 µM, 48 h
rat PLD1.d311 = target: T1, rat PLD1.d311 (Rattus norvegicus, UniProt P70496); settings: no noticeable difference between the two
T1 sequence (P70496 312-1036 isoform P70496-2): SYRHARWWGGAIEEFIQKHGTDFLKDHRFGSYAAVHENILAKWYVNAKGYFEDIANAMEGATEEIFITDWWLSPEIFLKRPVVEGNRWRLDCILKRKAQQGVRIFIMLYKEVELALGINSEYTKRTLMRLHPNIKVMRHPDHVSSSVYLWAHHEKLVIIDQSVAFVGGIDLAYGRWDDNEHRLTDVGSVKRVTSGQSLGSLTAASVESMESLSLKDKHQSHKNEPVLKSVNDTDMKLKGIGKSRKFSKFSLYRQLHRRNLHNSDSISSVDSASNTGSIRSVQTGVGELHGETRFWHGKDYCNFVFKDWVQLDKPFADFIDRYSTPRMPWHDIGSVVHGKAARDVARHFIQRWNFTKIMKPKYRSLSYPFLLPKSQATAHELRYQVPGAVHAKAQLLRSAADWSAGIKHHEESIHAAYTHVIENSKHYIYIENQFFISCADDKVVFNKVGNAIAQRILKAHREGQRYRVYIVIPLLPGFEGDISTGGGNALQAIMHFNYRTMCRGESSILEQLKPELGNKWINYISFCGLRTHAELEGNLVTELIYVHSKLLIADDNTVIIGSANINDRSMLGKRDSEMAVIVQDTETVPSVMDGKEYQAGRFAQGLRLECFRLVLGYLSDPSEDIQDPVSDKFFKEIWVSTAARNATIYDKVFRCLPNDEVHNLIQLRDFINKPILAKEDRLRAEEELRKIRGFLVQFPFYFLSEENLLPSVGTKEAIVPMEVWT

[4] = target: PLD2 (HEK293-gfpPLD2 cells) (Homo sapiens, UniProt O14939); experiment: Endogenous PLD activity assay; format: cell-based
PLD2 (HEK293-gfpPLD2 cells), sequence (O14939 whole entry): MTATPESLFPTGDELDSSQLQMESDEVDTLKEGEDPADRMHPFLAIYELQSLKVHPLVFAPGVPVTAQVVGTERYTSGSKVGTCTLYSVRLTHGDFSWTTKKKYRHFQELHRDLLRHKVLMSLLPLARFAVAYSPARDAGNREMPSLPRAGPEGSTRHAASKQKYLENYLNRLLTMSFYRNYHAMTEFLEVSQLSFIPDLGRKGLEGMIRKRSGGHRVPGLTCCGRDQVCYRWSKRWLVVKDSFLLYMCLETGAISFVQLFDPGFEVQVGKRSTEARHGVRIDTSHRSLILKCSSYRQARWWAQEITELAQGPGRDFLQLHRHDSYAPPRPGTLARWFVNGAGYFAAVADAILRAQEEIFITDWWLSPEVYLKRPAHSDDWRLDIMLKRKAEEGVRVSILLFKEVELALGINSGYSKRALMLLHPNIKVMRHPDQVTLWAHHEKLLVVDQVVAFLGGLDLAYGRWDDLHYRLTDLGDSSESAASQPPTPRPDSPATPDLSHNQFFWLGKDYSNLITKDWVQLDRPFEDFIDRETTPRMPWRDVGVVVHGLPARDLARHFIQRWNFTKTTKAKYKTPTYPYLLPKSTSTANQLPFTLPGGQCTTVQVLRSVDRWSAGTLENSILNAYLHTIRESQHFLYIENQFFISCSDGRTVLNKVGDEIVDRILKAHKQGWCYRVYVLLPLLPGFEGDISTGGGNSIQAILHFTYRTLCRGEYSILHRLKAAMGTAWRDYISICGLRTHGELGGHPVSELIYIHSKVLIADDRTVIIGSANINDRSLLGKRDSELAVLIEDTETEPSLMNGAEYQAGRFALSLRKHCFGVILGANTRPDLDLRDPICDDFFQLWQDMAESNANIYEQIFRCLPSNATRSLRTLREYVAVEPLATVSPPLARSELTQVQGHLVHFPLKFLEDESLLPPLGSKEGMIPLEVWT

PLD = settings: read-out: IC50 (PLD, indirect inhibitor); cited from earlier work

CC(C)=CCC/C(C)=C/CC/C(C)=C/C1C(COP(=O)(O)OP(=O)(O)O)C1(C)CC/C=C(\C)CCC=C(C)C (stereo in doubt) [presqualene diphosphate]
pIC50 [1]: 7.00
pIC50 (human PLD1b): < 6.00

O=C(NCCN1CCC(n2c(=O)[nH]c3ccccc32)CC1)c1ccc2ccccc2c1 [Compound 56]
Invasive migration in transwell invasion assay [2]: significantly (P < 0.05) decrease
Invasive migration in transwell invasion assay ([3]; 4T1, 20 µM): significantly (P < 0.05) decrease
Invasive migration in transwell invasion assay (PMT cells): significantly (P < 0.05) decrease

O=C(NCCN1CCC(n2c(=O)[nH]c3ccccc32)CC1)[C@@H]1C[C@H]1c1ccccc1 [Compound 58]
Invasive migration in transwell invasion assay [2]: significantly decreased cell migration
Invasive migration in transwell invasion assay ([3]; 4T1, 200 nM): significantly decreased cell migration
Invasive migration in transwell invasion assay ([3]; 4T1, 20 µM): significantly decreased cell migration
Invasive migration in transwell invasion assay (PMT cells): significantly decreased cell migration

O=C(NCCN1CCC(n2c(=O)[nH]c3ccccc32)CC1)c1cc(Br)c(Br)o1 [Compound 64]
Inhibition of basal and myr-Arf-1-stimulated activity of purified PLD1.d311 (rat PLD1.d311): directly inhibited

C[C@@H](CN1CCC(n2c(=O)[nH]c3cc(Cl)ccc32)CC1)NC(=O)c1ccc2ccccc2c1 [Compound 69]
Invasive migration in transwell invasion assay [2]: significantly decreased cell migration
Invasive migration in transwell invasion assay ([3]; 4T1, 200 nM): significantly decreased cell migration
Invasive migration in transwell invasion assay ([3]; 4T1, 20 µM): significantly decreased cell migration
Invasive migration in transwell invasion assay (PMT cells): significantly decreased cell migration

O=C(NCCN1CCC2(CC1)C(=O)NCN2c1ccccc1)c1ccc(C(F)(F)F)cc1 [Compound 70]
pIC50 [4]: < 4.70

O=C(NCCN1CCC2(CC1)C(=O)NCN2c1ccccc1)c1ccc2ccccc2c1 [Compound 72]
Invasive migration in transwell invasion assay [2]: significantly decreased cell migration
Invasive migration in transwell invasion assay ([3]; 4T1, 20 µM): significantly decreased cell migration
Invasive migration in transwell invasion assay (PMT cells): significantly decreased cell migration

O=C(c1ccc(Cl)cc1)N(CCN1CCC2(CC1)C(=O)NCN2c1ccccc1)C(=O)c1ccc(Cl)cc1 [Compound 82]
Invasive migration in transwell invasion assay [2]: significantly decreased cell migration
Invasive migration in transwell invasion assay ([3]; 4T1, 20 µM): significantly decreased cell migration
Invasive migration in transwell invasion assay (PMT cells): significantly decreased cell migration

Oc1ccc(/C=C/c2cc(O)cc(O)c2)cc1 [resveratrol]
pIC50 (PLD): < 4.22
